Measurements from US6413517B1, “Identification of broadly reactive DR restricted epitopes” (Epimmune, Inc., priority 1997, dated 2002).
Read-outs that look alike come from different tables or passages of the source.

What was measured:
DRB1*0301 (DR3w17) [1] = target: T1, DRB1*0301 (DR3w17) (Homo sapiens, UniProt P01903+P01911, A100K/A102G/A103R/A169T/F55Y/I96L/K41T/L162R/M171V/P40S/Q125H/Q178H/Q39Y/R42S/S66N/T106N/T262R/W38E/Y61H); experiment: biochemical
DRB1*0401 (DR4w4) = target: T2, DRB1*0401 (DR4w4) (Homo sapiens, UniProt P01903+P01911, A100K/A169T/F76Y/I96L/K127E/L162R/M171V/N62H/P40V/Q125Y/R42H/S133A/S149N/S66Y/V115G/V209L/W38E); experiment: biochemical; type: binding
T2 construct: Epstein-Barr virus (EBV) transformed homozygous cell lines were used as sources; endogenous in cells; host or cells: PREISS (EBV-transformed homozygous B cell line)

DRB1*0405 (DR4w15) = target: T3, DRB1*0405 (DR4w15) (Homo sapiens, UniProt P01903+P01911, A100R/A169T/D86S/F76Y/I96L/K127E/L162R/M171V/N62H/P40V/Q125Y/R42H/S133A/S149N/S66Y/V115G/V209L/W38E); experiment: biochemical; type: binding
T3 construct: Epstein-Barr virus (EBV) transformed homozygous cell lines were used as sources; endogenous in cells; host or cells: KT3 (EBV-transformed homozygous B cell line)

DRB1*0802 (DR8w2) = target: T4, DRB1*0802 (DR8w2) (Homo sapiens, UniProt P01903+P01911, A100R/A103L/A169T/F76Y/H45Y/I96F/K41T/L162R/M171V/P40S/Q125H/Q178H/Q39Y/Q99D/R218S/R42G/S66Y/V115G/W38E); experiment: biochemical; type: binding
T4 construct: Epstein-Barr virus (EBV) transformed homozygous cell lines were used as sources; endogenous in cells; host or cells: OLL (EBV-transformed homozygous B cell line)

DRB1*1101 (DR5w11) = target: T5, DRB1*1101 (DR5w11) (Homo sapiens, UniProt P01903+P01911, A100R/A169T/A87E/I96F/K41T/L162R/M171V/P40S/Q125H/Q178H/Q39Y/Q99D/R42S/S66Y/T262R/V115G/W38E); experiment: biochemical; type: binding
T5 construct: Epstein-Barr virus (EBV) transformed homozygous cell lines were used as sources; endogenous in cells; host or cells: SWEIG (EBV-transformed homozygous B cell line)
T5 sequence (P01903 26-254, other chains not shown): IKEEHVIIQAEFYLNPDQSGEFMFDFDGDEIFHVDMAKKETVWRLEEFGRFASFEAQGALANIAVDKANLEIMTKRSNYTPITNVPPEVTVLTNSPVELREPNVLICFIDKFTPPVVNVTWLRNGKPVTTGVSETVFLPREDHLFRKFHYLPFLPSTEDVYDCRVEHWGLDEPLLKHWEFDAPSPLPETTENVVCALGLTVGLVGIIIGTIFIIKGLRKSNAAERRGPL

DRB1*0301 (DR3w17) [2] = target: T1, DRB1*0301 (DR3w17); conditions: read-out: Binding Capacity (IC 50% nM) Other Alleles DR3
DRB1*1201 (DR5w12) = target: T6, DRB1*1201 (DR5w12) (Homo sapiens, UniProt P01903+P01911, A100R/A169T/D57E/D86V/F55L/H45Y/K41T/L162R/M171V/P40S/Q125H/Q178H/Q39Y/Q99D/R42G/S66L/T262R/V114A/V67L/W38E/Y59H/Y61H/Y89S); experiment: biochemical; type: binding
T6 construct: Epstein-Barr virus (EBV) transformed homozygous cell lines were used as sources; endogenous in cells; host or cells: Herluf (EBV-transformed homozygous B cell line)

DRB1*0101 (DR1) = target: T7, DRB1*0101 (DR1) (Homo sapiens, UniProt P01903+P01911, A100R/D57E/F55L/F60I/F76Y/I96L/L162R/M171V/P40L/Q125E/R42F/V115G/Y59C); experiment: biochemical; type: binding; conditions: Binding Capacity (IC 50% nM) DR1,4,7 DRB1
T7 construct: Epstein-Barr virus (EBV) transformed homozygous cell lines were used as sources; endogenous in cells; host or cells: LG2 (EBV-transformed homozygous B cell line)

DRB1*1501 (DR2w2b) = target: T8, DRB1*1501 (DR2w2b) (Homo sapiens, UniProt P01903+P01911); experiment: biochemical; type: binding
T8 construct: expressed in transfected cells; host or cells: transfected fibroblasts L466.1

DRB5*0101 (DR2w2a) = target: T9, DRB5*0101 (DR2w2a) (Homo sapiens, UniProt P01903+Q30154); experiment: biochemical; type: binding
T9 construct: Epstein-Barr virus (EBV) transformed homozygous cell lines were used as sources; endogenous in cells; host or cells: GM3107 (EBV-transformed homozygous B cell line)

DRB1*1302 (DR6w19) = target: T10, DRB1*1302 (DR6w19) (Homo sapiens, UniProt P01903+P01911, A100E/A169T/K41T/L162R/M171V/P40S/Q125H/Q178H/Q39Y/Q99D/R42S/S66N/T262R/V115G/W38E/Y61H); experiment: biochemical; type: binding; conditions: Binding Capacity (IC 50% nM) Other Alleles DR6w19
T10 construct: Epstein-Barr virus (EBV) transformed homozygous cell lines were used as sources; the source of Class II molecules the EBV transformed homozygous cell line H0301; endogenous in cells; host or cells: H0301 (EBV-transformed homozygous B cell line)

DRB1*0701 (DR7) = target: T11, DRB1*0701 (DR7) (Homo sapiens, UniProt P01903+P01911, A100R/A102G/A103Q/D57E/D86V/E43K/F76Y/K127E/L162R/M171V/P40G/Q125H/Q99D/R33Q/R42Y/R54Q/S133A/S66F/T210M/V115G/Y107V/Y59L/Y89S); experiment: biochemical; type: binding
T11 construct: Epstein-Barr virus (EBV) transformed homozygous cell lines were used as sources; endogenous in cells; host or cells: PITOUT (EBV-transformed homozygous B cell line)

DRB1*0901 (DR9) = target: T12, DRB1*0901 (DR9) (Homo sapiens, UniProt P01903+P01911, A100R/A103E/D57H/D86V/F55Y/F60I/F76Y/I96F/K127E/L162R/M171V/P40D/Q125H/Q99R/R33Q/R42F/S133A/S66N/T210M/V115G/W38K/Y107V/Y59G/Y89S); experiment: biochemical; type: binding; conditions: Binding Capacity (IC 50% nM) Other Alleles DR9
T12 construct: Epstein-Barr virus (EBV) transformed homozygous cell lines were used as sources; endogenous in cells

[3] = Binding Capacity (IC50% nM) DR3
[4] = Binding Capacity (IC50% nM) DR4w4
[5] = read-out: Binding Capacity (IC 50% nM) Other Alleles DR4w15
[6] = read-out: Binding Capacity (IC 50% nM) Other Alleles DR8w2
[7] = Binding Capacity (IC50% nM) DR5w11
[8] = read-out: Binding Capacity (IC 50% nM) Other Alleles DR5w11
[9] = Binding Capacity (IC50% nM) DR5w12
[10] = read-out: Binding Capacity (IC 50% nM) Other Alleles DR5w12
[11] = Binding Capacity (IC50% nM) DR2w2b
[12] = read-out: Binding Capacity (IC 50% nM) Other Alleles DR2w2b
[13] = Binding Capacity (IC 50% nM) DR1,4,7 DR4w4
[14] = Binding Capacity (IC 50% nM) Other Alleles DR2w2a
[15] = Binding Capacity (IC 50% nM) Other Alleles DR8w2
[16] = Binding Capacity (IC 50% nM) Other Alleles DR2w2b
[17] = Binding Capacity (IC 50% nM) DR1,4,7 DR7

SMILES | IC50 (DRB1*0301 (DR3w17) [1]; [3]) | IC50 (DRB1*0401 (DR4w4); [4]) | IC50 (DRB1*0405 (DR4w15); [5]) | IC50 (DRB1*0802 (DR8w2); [6]) | IC50 (DRB1*1101 (DR5w11); [7]) | IC50 (DRB1*1101 (DR5w11); [8]) | IC50 (DRB1*0301 (DR3w17) [2]) | IC50 (DRB1*1201 (DR5w12); [9]) | IC50 (DRB1*1201 (DR5w12); [10]) | IC50 (DRB1*0101 (DR1)) | IC50 (DRB1*1501 (DR2w2b); [11]) | IC50 (DRB1*1501 (DR2w2b); [12]) | IC50 (DRB1*0401 (DR4w4); [13]) | IC50 (DRB5*0101 (DR2w2a); [14]) | IC50 (DRB1*1302 (DR6w19)) | IC50 (DRB1*0802 (DR8w2); [15]) | IC50 (DRB1*1501 (DR2w2b); [16]) | IC50 (DRB1*0701 (DR7); [17]) | IC50 (DRB1*0901 (DR9)) | other results
CC[C@H](C)[C@H](NC(=O)[C@H](CO)NC(=O)[C@H](CO)NC(=O)[C@H](CC(N)=O)NC(=O)[C@@H](NC(=O)[C@@H](NC(=O)[C@H](CC(N)=O)NC(=O)[C@@H](N)Cc1ccccc1)C(C)C)C(C)C)C(=O)NCC(=O)N[C@@H](CC(C)C)C(=O)N[C@H](C(=O)N[C@@H](CCSC)C(=O)N[C@H](C(=O)N[C@@H](CC(C)C)C(=O)N[C@@H](CO)C(=O)O)C(C)C)[C@@H](C)CC [Peptide 27.384] | > 10000 nM | > 10000 nM | > 1000 nM | > 1000 nM | > 10000 nM | > 1000 nM | > 1000 nM | > 10000 nM | > 1000 nM |  |  |  |  |  |  |  |  |  |  | IC50 (DRB1*0401 (DR4w4); read-out: Binding Capacity (IC 50% nM) DR1,4,7 DR4w4): > 1000 nM; IC50 (DRB1*0405 (DR4w15); Binding Capacity (IC50% nM) DR4w15): > 10000 nM; IC50 (DRB1*0802 (DR8w2); Binding Capacity (IC50% nM) DR8w2): > 10000 nM
CC[C@H](C)[C@H](NC(=O)[C@H](C)NC(=O)[C@H](CC(C)C)NC(=O)[C@H](CCCCN)NC(=O)[C@H](CCCNC(=N)N)NC(=O)[C@@H](N)CCSC)C(=O)N[C@@H](CC(C)C)C(=O)N[C@@H](CO)C(=O)N[C@H](C(=O)N[C@@H](CO)C(=O)N[C@@H](CO)C(=O)N[C@@H](Cc1ccccc1)C(=O)N[C@@H](CC(C)C)C(=O)N[C@@H](Cc1ccccc1)C(=O)N[C@H](C(=O)O)C(C)C)C(C)C [Peptide 27.388] | > 10000 nM |  |  |  |  |  |  |  |  | < 1000 nM |  |  |  |  |  |  |  |  |  | 
CC(C)C[C@H](NC(=O)CN)C(=O)N[C@@H](C)C(=O)N[C@@H](Cc1ccc(O)cc1)C(=O)N[C@@H](CCCCN)C(=O)N[C@@H](Cc1ccccc1)C(=O)N[C@H](C(=O)N[C@H](C(=O)N1CCC[C@H]1C(=O)NCC(=O)N[C@@H](C)C(=O)N[C@@H](C)C(=O)N[C@H](C(=O)N1CCC[C@H]1C(=O)N[C@@H](Cc1ccc(O)cc1)C(=O)O)[C@@H](C)O)C(C)C)C(C)C [Peptide 1188.32] | > 10000 nM |  |  |  |  |  | > 1000 nM |  |  |  | > 10000 nM | > 1000 nM |  |  |  |  |  |  |  | 
CC[C@H](C)[C@H](NC(=O)[C@H](CC(C)C)NC(=O)[C@H](CCCCN)NC(=O)[C@H](CCSC)NC(=O)[C@H](C)NC(=O)[C@H](CC(C)C)NC(=O)[C@@H]1CCCN1C(=O)[C@@H](NC(=O)[C@H](C)NC(=O)[C@H](Cc1c[nH]cn1)NC(=O)[C@H](CC(N)=O)NC(=O)[C@@H](NC(=O)[C@H](Cc1c[nH]c2ccccc12)NC(=O)[C@H](CC(N)=O)NC(=O)[C@@H](N)Cc1c[nH]cn1)C(C)C)C(C)C)C(=O)O [Peptide 1188.34] |  |  |  |  |  | > 1000 nM | > 1000 nM |  |  | < 1000 nM |  |  | < 1000 nM | < 1000 nM | < 1000 nM | < 1000 nM | < 1000 nM | < 1000 nM | < 1000 nM | IC50 (DRB1*0405 (DR4w15); Binding Capacity (IC 50% nM) Other Alleles DR4w15): < 1000 nM; IC50 (DRB1*1201 (DR5w12); Binding Capacity (IC 50% nM) Other Alleles DR5w12): < 1000 nM
CSCC[C@H](NC(=O)[C@H](C)NC(=O)[C@H](CC(C)C)NC(=O)[C@@H]1CCCN1C(=O)[C@@H](NC(=O)[C@H](C)NC(=O)[C@H](Cc1c[nH]cn1)NC(=O)[C@H](CC(N)=O)NC(=O)[C@@H](NC(=O)[C@H](Cc1c[nH]c2ccccc12)NC(=O)[C@H](CC(N)=O)NC(=O)[C@H](Cc1c[nH]cn1)NC(=O)[C@@H](N)CCCNC(=N)N)C(C)C)C(C)C)C(=O)N[C@@H](CCCCN)C(=O)N[C@@H](CC(C)C)C(=O)O [Peptide 1188.45] |  | 9 nM | > 1000 nM |  |  | > 1000 nM |  | > 10000 nM | > 1000 nM | < 1000 nM |  |  | < 1000 nM | < 1000 nM | < 1000 nM | < 1000 nM | < 1000 nM | < 1000 nM | < 1000 nM | IC50 (DRB1*0301 (DR3w17) [1]; Binding Capacity (IC 50% nM) Other Alleles DR3): < 1000 nM
CC(C)[C@H](NC(=O)[C@H](Cc1ccccc1)NC(=O)[C@@H](N)CCCCN)C(=O)N[C@H](C(=O)N1CCC[C@H]1C(=O)NCC(=O)N[C@@H](C)C(=O)N[C@@H](C)C(=O)N[C@H](C(=O)N1CCC[C@H]1C(=O)N[C@@H](Cc1ccc(O)cc1)C(=O)N[C@@H](C)C(=O)NCC(=O)N[C@@H](CCC(=O)O)C(=O)N1CCC[C@H]1C(=O)O)[C@@H](C)O)C(C)C [Peptide F107.17] |  |  | > 1000 nM | > 1000 nM | > 10000 nM | > 1000 nM | > 1000 nM |  | > 1000 nM | < 1000 nM | > 10000 nM | > 1000 nM | < 1000 nM |  | < 1000 nM |  |  |  | < 1000 nM | IC50 (DRB5*0101 (DR2w2a); Binding Capacity (IC50% nM) DR2w2a): > 10000 nM; IC50 (DRB5*0101 (DR2w2a); read-out: Binding Capacity (IC 50% nM) Other Alleles DR2w2a): > 1000 nM; IC50 (DRB1*0701 (DR7); Binding Capacity (IC50% nM) DR7): > 10000 nM; IC50 (DRB1*0701 (DR7); read-out: Binding Capacity (IC 50% nM) DR1,4,7 DR7): > 1000 nM
